Test results reported in ChEMBL document CHEMBL4339194 (J Med Chem, 2019).

Assays:
Catenin beta-1 = target: T1, Catenin beta-1 (Homo sapiens, UniProt P35222)
T1 sequence (P35222 whole entry): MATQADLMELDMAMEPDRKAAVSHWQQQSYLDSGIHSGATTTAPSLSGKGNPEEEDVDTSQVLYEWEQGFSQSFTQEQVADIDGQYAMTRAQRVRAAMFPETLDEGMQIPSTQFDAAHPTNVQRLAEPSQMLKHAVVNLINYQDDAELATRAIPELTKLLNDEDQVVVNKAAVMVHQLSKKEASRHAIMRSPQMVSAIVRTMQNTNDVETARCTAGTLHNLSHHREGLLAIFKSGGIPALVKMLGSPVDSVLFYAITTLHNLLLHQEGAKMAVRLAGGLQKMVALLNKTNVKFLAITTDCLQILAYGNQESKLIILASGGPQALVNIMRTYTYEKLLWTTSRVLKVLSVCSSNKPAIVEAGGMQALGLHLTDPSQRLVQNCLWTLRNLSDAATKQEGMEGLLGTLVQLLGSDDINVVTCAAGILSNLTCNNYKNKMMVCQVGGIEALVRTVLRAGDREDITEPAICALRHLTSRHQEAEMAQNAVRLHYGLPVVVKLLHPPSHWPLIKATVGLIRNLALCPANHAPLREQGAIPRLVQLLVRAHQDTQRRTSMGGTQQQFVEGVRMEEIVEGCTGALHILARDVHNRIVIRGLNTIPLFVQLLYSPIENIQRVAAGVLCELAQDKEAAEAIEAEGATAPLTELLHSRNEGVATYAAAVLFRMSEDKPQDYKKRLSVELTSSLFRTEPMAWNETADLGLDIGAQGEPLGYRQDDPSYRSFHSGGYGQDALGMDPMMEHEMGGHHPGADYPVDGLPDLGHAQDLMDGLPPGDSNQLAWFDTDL

SW480 = assay: Cytotoxicity against human SW480 cells assessed as reduction in cell viability measured after 72 hrs by MTS assay; format: functional, cell-based; conditions: SW480, 72 h
HCT-116 = assay: Cytotoxicity against human HCT116 cells assessed as reduction in cell viability measured after 72 hrs by MTS assay; format: functional, cell-based; conditions: HCT-116, 72 h
MDA-MB-231 = assay: Cytotoxicity against human MDA-MB-231 cells assessed as reduction in cell viability measured after 72 hrs by MTS assay; format: functional, cell-based; conditions: MDA-MB-231, 72 h
MDA-MB-468 = assay: Cytotoxicity against human MDA-MB-468 cells assessed as reduction in cell viability measured after 72 hrs by MTS assay; format: functional, cell-based; conditions: MDA-MB-468, 72 h
BT-20 = assay: Cytotoxicity against human BT20 cells assessed as reduction in cell viability measured after 72 hrs by MTS assay; format: functional, cell-based; conditions: BT-20, 72 h
A549 = assay: Cytotoxicity against human A549 cells assessed as reduction in cell viability measured after 72 hrs by MTS assay; format: functional, cell-based; conditions: A549, 72 h
[1] = Drug uptake in human SW480 cells assessed as cell-bound level per million cells at 25 uM measured after 3 hrs by HPLC-MS analysis; format: ADME, cell-based; conditions: sw480, 3 h
[2] = Prodrug conversion in human SW480 cells assessed as (S)-4-((S)-2-((S)-2-(5-Chloro-1H-indole-2-carboxamido)-3-(naphthalen-2-yl)propanamido)-3-(2H-tetrazol-5-yl)propanamido)-5-oxo-5-((4-(trifluoromethoxy)phenyl)amino)pentanoic Acid formation at 25 uM measured after 24 hrs by HPLC-MS analysis; format: ADME, cell-based; conditions: sw480, 24 h

COC(=O)[C@H](CCC(=O)O)NC(=O)[C@H](CC(=O)O)NC(=O)[C@H](Cc1ccc2ccccc2c1)NC(=O)Cc1nc2ccc(Cl)cc2o1
IC50 (Catenin beta-1): > 400 µM
Ki (Catenin beta-1): > 100 µM

COC(=O)[C@H](CCC(=O)O)NC(=O)[C@H](CC(=O)O)NC(=O)[C@H](Cc1ccc2ccccc2c1)NC(=O)Cc1c[nH]c2ccc(Cl)cc12
IC50 (Catenin beta-1): > 400 µM
Ki (Catenin beta-1): > 100 µM

COC(=O)[C@H](CCC(=O)O)NC(=O)[C@H](CC(=O)O)NC(=O)[C@H](Cc1ccc2ccccc2c1)NC(=O)c1cc2cc(C)ccc2[nH]1
IC50 (Catenin beta-1): > 400 µM
Ki (Catenin beta-1): > 100 µM

COC(=O)[C@H](CCC(=O)O)NC(=O)[C@H](CC(=O)O)NC(=O)[C@H](Cc1ccc2ccccc2c1)NC(=O)Cc1nc2ccc(Cl)cc2s1
IC50 (Catenin beta-1): 88 µM
Ki (Catenin beta-1): 22 µM

CCOC(=O)CC[C@H](NC(=O)[C@H](CC(=O)OCC)NC(=O)[C@H](Cc1ccc2ccccc2c1)NC(=O)c1cc2cc(OC)ccc2[nH]1)C(=O)OC
IC50 (SW480): > 200 µM
IC50 (HCT-116): > 200 µM
IC50 (MDA-MB-231): > 200 µM
IC50 (MDA-MB-468): > 200 µM
IC50 (BT-20): > 200 µM
IC50 (A549): > 200 µM
IC50 (Catenin beta-1): > 400 µM
Ki (Catenin beta-1): > 100 µM

COC(=O)[C@H](CCC(=O)O)NC(=O)[C@H](CC(=O)O)NC(=O)[C@H](Cc1ccc2ccccc2c1)NC(=O)Cc1c[nH]c2cc(Cl)ccc12
IC50 (Catenin beta-1): > 400 µM
Ki (Catenin beta-1): > 100 µM

CCOC(=O)CC[C@H](NC(=O)[C@H](Cc1nn[nH]n1)NC(=O)[C@H](Cc1ccc2ccccc2c1)NC(=O)c1cc2cc(Cl)ccc2[nH]1)C(=O)Nc1ccc(OC(F)(F)F)cc1
IC50 (SW480): 17.7 µM
IC50 (HCT-116): 60.6 µM
IC50 (MDA-MB-231): 16.6 µM
IC50 (MDA-MB-468): 10.6 µM
IC50 (A549): 67.9 µM
Drug uptake [1]: 1.4 nmol/million cells
Drug metabolism [2]: Metabolite_Notdetected

COC(=O)[C@H](CCC(=O)O)NC(=O)[C@H](CC(=O)O)NC(=O)[C@H](Cc1ccc2ccccc2c1)NC(=O)Cc1nc2cc(Cl)ccc2[nH]1
IC50 (Catenin beta-1): > 400 µM
Ki (Catenin beta-1): > 100 µM

COC(=O)[C@H](CCC(=O)O)NC(=O)[C@H](CC(=O)O)NC(=O)[C@H](Cc1ccc2ccccc2c1)NC(=O)Cc1nc2cc(Cl)ccc2s1
IC50 (Catenin beta-1): > 400 µM
Ki (Catenin beta-1): > 100 µM

COC(=O)[C@H](CCC(=O)O)NC(=O)[C@H](CC(=O)O)NC(=O)[C@H](Cc1ccc2ccccc2c1)NC(=O)c1cc2ccc(Cl)cc2[nH]1
IC50 (Catenin beta-1): 60 µM
Ki (Catenin beta-1): 15 µM

COC(=O)[C@H](CCC(=O)O)NC(=O)[C@H](CC(=O)O)NC(=O)[C@H](Cc1ccc2ccccc2c1)NC(=O)Cc1nc2cc(Cl)ccc2o1
IC50 (Catenin beta-1): > 400 µM
Ki (Catenin beta-1): > 100 µM

NC(=O)CC[C@H](NC(=O)[C@H](Cc1nn[nH]n1)NC(=O)[C@H](Cc1ccc2ccccc2c1)NC(=O)c1cc2cc(Cl)ccc2[nH]1)C(=O)Nc1ccc(OC(F)(F)F)cc1
IC50 (SW480): 24.6 µM
IC50 (HCT-116): 57.8 µM
IC50 (MDA-MB-231): 29.3 µM
IC50 (MDA-MB-468): 26.9 µM
IC50 (BT-20): 29.3 µM
IC50 (A549): 47.5 µM

COC(=O)[C@H](CCC(=O)O)NC(=O)[C@H](CC(=O)O)NC(=O)[C@H](Cc1ccc2ccccc2c1)NC(=O)c1cc2cc(OC)ccc2[nH]1
IC50 (Catenin beta-1): > 400 µM
Ki (Catenin beta-1): > 100 µM
